Results: article PMC10439028, “SGLT5 is the renal transporter for 1,5-anhydroglucitol, a major player in two rare forms of neutropenia” (Cellular and Molecular Life Sciences: CMLS, 2023)
Changes are numbered by the printed parent chain.

Experiments:
hSGLT5 Arg401His = target: T1, hSGLT5 Arg401His (Homo sapiens, UniProt A0PJK1, R401H); assay: 1,5-AG uptake in HEK293T cells overexpressing SGLT5 variant Arg401His; assay type: cell-based
T1 construct: pUB83-hSGLT5-iso2 as well as the various SGLT5 mutants obtained were used to transduce HEK293T cells; expressed in transfected cells; host or cells: HEK293T, lentiviral transduction (pUB83)
T1 sequence (A0PJK1 1-596 R401H): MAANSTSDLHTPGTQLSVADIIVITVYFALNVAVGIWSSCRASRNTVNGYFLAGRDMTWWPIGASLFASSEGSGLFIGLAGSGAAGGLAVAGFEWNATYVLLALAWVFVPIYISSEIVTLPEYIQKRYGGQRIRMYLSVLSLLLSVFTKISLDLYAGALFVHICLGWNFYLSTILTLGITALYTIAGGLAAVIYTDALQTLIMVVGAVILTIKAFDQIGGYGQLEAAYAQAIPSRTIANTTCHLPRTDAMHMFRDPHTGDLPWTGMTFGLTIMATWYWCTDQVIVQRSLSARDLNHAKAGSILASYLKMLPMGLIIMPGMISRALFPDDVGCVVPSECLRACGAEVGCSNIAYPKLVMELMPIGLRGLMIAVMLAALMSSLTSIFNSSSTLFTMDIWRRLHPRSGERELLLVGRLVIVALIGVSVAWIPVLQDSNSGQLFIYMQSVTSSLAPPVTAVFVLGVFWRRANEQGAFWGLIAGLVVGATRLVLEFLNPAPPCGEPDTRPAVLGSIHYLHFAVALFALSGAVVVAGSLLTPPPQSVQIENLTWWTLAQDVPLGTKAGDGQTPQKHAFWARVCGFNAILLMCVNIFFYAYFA
Protocol: (§1) For a typical transporter experiment we proceeded as follows. […] To minimize cell loss during the various washing steps in the radioactive uptake experiments, the wells where the cells were seeded were previously coated with poly- D-lysine, which improved their adhesion to the plastic surface of the wells. For this, each well of the 24-well plates was treated with 200 µl of a 0.01% poly-L-lysine solution for 10 min, washed 3 times with 1 ml of sterilized water and left to dry for 2 h. Only then could the 24-well plates be seeded with the appropriate cell lines and cultured overnight at 37 °C in 5% CO2.
(§2) On day two, the radioactive uptake assay could be performed. The cell culture media was removed by aspiration and cells were incubated for 20 min at 37 °C and 5% CO2 with a basal medium (10 mM HEPES, pH 7.4, 1 mM CaCl2, 1 mM MgCl2, 2 mM KCl) containing 140 mM choline chloride to deplete intracellular Na^2+ ions. […]
(§3) Once the uptake medium was added to the cells, the plates were incubated at 37 °C in 5% CO2 during the required time. […] In each experiment, the transport activities were calculated after subtracting a “blank” value, corresponding to the radioactivity in the appropriate control cells (HEK293T cells that were stably or transiently transfected with one of the parent plasmids pEF6/MycHisA, pEF6HisB, pUB82 or pUB83 with no inserted cDNA) that were analyzed in parallel. […]

hSGLT5 Ala522Val = target: T2, hSGLT5 Ala522Val (Homo sapiens, UniProt A0PJK1, A522V); assay: 1,5-AG uptake in HEK293T cells overexpressing SGLT5 variant Ala522Val; assay type: cell-based
T2 construct: pUB83-hSGLT5-iso2 as well as the various SGLT5 mutants obtained were used to transduce HEK293T cells; expressed in transfected cells; host or cells: HEK293T, lentiviral transduction (pUB83)
T2 sequence (A0PJK1 1-596 A522V): T1 sequence (A0PJK1 1-596 R401H) with H401R, A522V
Protocol: as §1, §2, §3

With OC[C@H]1OC[C@H](O)[C@@H](O)[C@@H]1O [1,5-AG, 1,5-anhydroglucitol] the Vmax (hSGLT5 Arg401His) was 11.4 ± 0.2 pmol/min/10^5cells, the “reduction of transport efficiency compared to SGLT5” value (hSGLT5 Arg401His) was “twofold” and the Vmax (hSGLT5 Ala522Val; variant Ala522Val) was 18.3 ± 0.5 pmol/min/10^5cells. The “effect of mutation on ability of SGLT5 to transport 1,5-AG” value (hSGLT5 Ala522Val; variant Ala522Val (control)) was “no effect”.
